Assay results published in US6624146B1, “Pharmaceutical compositions containing fibroblast growth factor-related peptides” (Agency of Industrial Science and Technology, priority 1998, dated 2003).

Assays:
[1] = Weight-reducing effect: change in body weight the day after injection into the cerebral ventricles; format: in vivo, Wistar rats
Procedure: This peptide was dissolved in physiological saline to prepare a 2.6 pmol/μl peptide-containing injection solution. Five μl of the injection solution (containing 13 pmol peptide) was administered into the cerebral ventricles of 10-week-old male Wistar rats, which were weighed on the next day to calculate amounts of change in weight prior to and subsequent to injection.
On the other hand, 5 μl physiological saline was administered to rats as a control in the same manner as described above, and 2.6 pmol/μl FGF-containing injection solution was administered to rats as a comparative example in the same manner as described above. Each rat was weighed on the next day to calculate amounts of change in weight prior to and subsequent to injection.

[2] = Food and water intake inhibitory effects 12 hours after injection into the cerebral ventricles; format: in vivo, Wistar rats
Procedure: In the same manner as in example 1, the peptide […]Try-Lys-Lys-Pro-Lys-Leu (SEQ ID NO:3) was synthesized. This peptide was dissolved in physiological saline to prepare a 2.6 pmol/μl peptide-containing injection solution. Five μl of the injection solution (containing 13 pmol peptide) was administered in the cerebral ventricles of 10-week old male Wistar rats, and the food and water intake level were measured 12 hours after administration to compare with those in the same period of the day prior to administration.
On the other hand, 5 μl physiological saline was administered as a control in the same manner as described above, and 2.6 pmol/μl FGF-containing injection solution was administered as a comparative example in the same manner as described above. Food and water intake levels were measured respectively 12 hours after administration, and were compared to those in the same period of the day prior to administration to calculate amounts of change in food and water intake.

[3] = 13 pmol into the cerebral ventricles, 12 hours, vs saline control
[4] = 10-week-old male Wistar rats, 13 pmol/5 μl into the cerebral ventricles, 12 hours after administration vs same period of the day prior

For “Ala-Ala-Val-Ala-Leu-Leu-Pro-Ala-Val-Leu-Leu-Ala-Leu-Leu-Ala-Val-Ala-Ala-Ala-Asn-Try-Lys-Lys-Pro-Lys-Leu (AAVALLPAVLLALLAVAAANYKKPKL; Derivative of partial peptide of fibroblast growth factors)”, the “Weights of the rats compared to physiological saline control (in words)” value ([1]; 13 pmol into the cerebral ventricles, next day, vs saline control) was “significantly reduced”, the “Amount of change in weight” value ([1]; 10-week-old male Wistar rats, 13 pmol/5 μl into the cerebral ventricles, weighed on the next day, prior vs subsequent to injection) was -5.3 g and the “Food intake level compared to physiological saline control (in words)” value [2, 3] was “significantly reduced”. The “Water intake level compared to physiological saline control (in words)” value [2, 3] was “significantly reduced”, the “Amount of change in food intake” value [2, 4] was -4.8 g and the “Amount of change in water intake” value [2, 4] was -8.4 mL.
